Test results taken from article PMC3050878, “Correlation of Membrane Binding and Hydrophobicity to the Chaperone-Like Activity of PDC-109, the Major Protein of Bovine Seminal Plasma” (PLoS ONE, 2011).

Tests used:
PDC-109 [1] = target: T1, PDC-109 (Bos taurus, UniProt P02784); assay: fluorescence titration, Scatchard analysis; type: binding; settings: read-out: K a (converted)
T1 construct: native, purified from bovine seminal plasma (Sephadex G-50 gel filtration, DEAE Sephadex A-25); mature 109 residues, two FnII domains, O-glycosylated; polydisperse oligomers
T1 sequence (P02784 26-134): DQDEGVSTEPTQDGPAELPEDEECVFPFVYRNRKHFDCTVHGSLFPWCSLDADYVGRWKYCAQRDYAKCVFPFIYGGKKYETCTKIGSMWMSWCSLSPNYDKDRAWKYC

PDC-109 [2] = target: T1, PDC-109; assay: near-UV CD; type: binding; settings: sonicated unilamellar vesicles, 0.1 mM lipid, pH 7.4, room temperature
PDC-109 [3] = target: T1, PDC-109; assay: ANS fluorescence in presence of PrC; settings: 10 mM PrC, 50 µM ANS, 0.05 mg/mL protein; lowers ANS binding
PDC-109 [4] = target: T1, PDC-109; assay: isothermal titration calorimetry, sequential binding model; settings: read-out: Ka × 10^3 (M^-1) (converted)
Source text: isothermal titration calorimetry, sequential binding model on PDC-109

O=S(=O)(O)c1cccc2cccc(Nc3ccccc3)c12 [ANS, 8-anilinonaphthalene sulphonic acid]
Kd (PDC-109 [1]): 32.4 µM

CCCCCCCCCCCCCC(=O)OC[C@H](COP(=O)([O-])OCC[N+](C)(C)C)OC(=O)CCCCCCCCCCCCC [DMPC]
near-UV CD (PDC-109 [2]): the protein tertiary structure is altered upon phospholipid binding

CCCCCCCCCCCCCC(=O)OC[C@H](COP(=O)(O)OCC(O)CO)OC(=O)CCCCCCCCCCCCC (some centres unmarked) [DMPG]
near-UV CD (PDC-109 [2]): the protein tertiary structure is altered upon phospholipid binding

C[N+](C)(C)CCOP(=O)([O-])O [PrC]
ANS fluorescence in presence of PrC (PDC-109 [3]): PrC binding leads to a significant decrease in the surface hydrophobicity of the protein

O=S(=O)(O)c1cccc2c(-c3ccc(Nc4ccccc4)c4c(S(=O)(=O)O)cccc34)ccc(Nc3ccccc3)c12 [bisANS, 4,4′-Dianilino-1,1′-binaphthyl-5,5′-disulphonic acid]
Kd (PDC-109 [4]): 389 µM
